Columns and labels:
B-RAF G466V = target: T1, B-RAF G466V (Homo sapiens, UniProt P15056, G466V); experiment: Target protein degradation, assay D: T-Rex 293 cells, HA-BRAF_G466V, 384 well format; assay type: cell-based; details: T-Rex 293 HA-BRAF_G466V cells, 24 hours, Examples 83-269; for DC50: Assay D; for Dmax: T-REx-293, Assay D
T1 construct: expressed in transfected cells; host or cells: T-Rex 293 cells (Invitrogen #R71007)
Method in brief: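 Degradation measured by high-content imaging of anti-HA immunofluorescence in fixed T-Rex 293 cells carrying inducible HA-BRAF G466V (1 ng/mL doxycycline), after 24 h PROTAC exposure at 37 °C over 300 nM–5 pM (1:3, 11 points, 0.5% DMSO). Outputs DC50 and Dmax as % of control; nuclei counts against DMSO wells gauge toxicity.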

B-RAF V600E = target: T2, B-RAF V600E (Homo sapiens, UniProt P15056, V600E); experiment: Target protein degradation, assay C: T-Rex 293 cells, HA-BRAF_V600E, 384 well format; assay type: cell-based; details: T-Rex 293 HA-BRAF_V600E cells, 24 hours, Examples 83-269; for DC50: Assay C; for Dmax: T-REx-293, Assay C
T2 construct: expressed in transfected cells; host or cells: T-Rex 293 cells (Invitrogen #R71007)
Method in brief: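 After 24 h exposure to an 11-point 1:3 series (300 nM–5 pM, 0.5% DMSO), fixed T-Rex 293 cells carrying HA-BRAF V600E (induced with 1 ng/mL doxycycline) were stained anti-HA and imaged. DC50 and Dmax were derived from BRAF intensity relative to control, and cytotoxicity from nuclear counts.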

T1 sequence (P15056 whole entry G466V): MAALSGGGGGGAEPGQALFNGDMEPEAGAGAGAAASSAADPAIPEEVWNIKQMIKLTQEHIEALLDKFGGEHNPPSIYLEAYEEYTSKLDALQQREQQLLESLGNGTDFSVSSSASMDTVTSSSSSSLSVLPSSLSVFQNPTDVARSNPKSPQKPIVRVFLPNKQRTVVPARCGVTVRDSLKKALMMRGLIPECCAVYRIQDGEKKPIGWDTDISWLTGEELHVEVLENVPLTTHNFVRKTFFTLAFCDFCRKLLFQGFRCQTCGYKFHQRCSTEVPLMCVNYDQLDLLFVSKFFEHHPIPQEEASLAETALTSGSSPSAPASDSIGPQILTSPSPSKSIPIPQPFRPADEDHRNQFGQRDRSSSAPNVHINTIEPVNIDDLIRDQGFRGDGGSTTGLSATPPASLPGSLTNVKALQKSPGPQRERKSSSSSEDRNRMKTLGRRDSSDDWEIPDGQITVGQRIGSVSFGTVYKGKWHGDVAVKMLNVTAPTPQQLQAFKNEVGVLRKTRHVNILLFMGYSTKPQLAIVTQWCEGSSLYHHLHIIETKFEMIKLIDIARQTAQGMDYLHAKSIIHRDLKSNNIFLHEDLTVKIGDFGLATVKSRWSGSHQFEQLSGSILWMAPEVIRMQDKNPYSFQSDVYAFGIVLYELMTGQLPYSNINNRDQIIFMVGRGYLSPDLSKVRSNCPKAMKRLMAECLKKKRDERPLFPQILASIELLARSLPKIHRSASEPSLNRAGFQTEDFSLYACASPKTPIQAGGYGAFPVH
T2 sequence (P15056 whole entry V600E): as the sequence (P15056 whole entry G466V) above, with V466G, V600E counted along it

SMILES | DC50 (B-RAF G466V) | Dmax (B-RAF G466V) | DC50 (B-RAF V600E) | Dmax (B-RAF V600E)
CC(=O)N(CC1CCN(c2ccc(-n3cnc4ccc(Oc5c(F)ccc(NS(=O)(=O)N6CC[C@@H](F)C6)c5C#N)cc4c3=O)cc2)CC1)[C@H]1C[C@@H](Oc2ccc3c(c2)CN([C@H]2CCC(=O)NC2=O)C3=O)C1 [Example 268, N-{[1-(4-{6-[2-cyano-6-fluoro-3-({[(3R)-3-fluoropyrrolidin-1-yl]sulfonyl}amino)phenoxy]-4-oxo-3,4-dihydroquinazolin-3-yl}phenyl)piperidin-4-yl]methyl}-N-[(1r,3r)-3-({2-[(3S)-2,6-dioxopiperidin-3-yl]-1-oxo-2,3-dihydro-1H-isoindol-5-yl}oxy)cyclobutyl]acetamide] | 10 to 30 nM | ≤ 35% | > 500 nM | –
N#Cc1c(NS(=O)(=O)N2CC[C@@H](F)C2)ccc(F)c1Oc1ccc2ncn(-c3ccc(N4CCC(c5ccc6c(c5)C(=O)N(C5CCC(=O)NC5=O)C6=O)CC4)nc3)c(=O)c2c1 (stereo partly drawn) [Example 135, (3R)-N-(2-cyano-3-{[3-(6-{4-[2-(2,6-dioxopiperidin-3-yl)-1,3-dioxo-2,3-dihydro-1H-isoindol-5-yl]piperidin-1-yl}pyridin-3-yl)-4-oxo-3,4-dihydroquinazolin-6-yl]oxy}-4-fluorophenyl)-3-fluoropyrrolidine-1-sulfonamide] | > 30 nM | – | > 500 nM | –
N#Cc1c(NS(=O)(=O)N2CC[C@@H](F)C2)ccc(F)c1Oc1ccc2ncn(-c3ccc(N4CCC(CN5CCC(c6ccc([C@@H]7CCC(=O)NC7=O)cc6F)CC5)CC4)cc3)c(=O)c2c1 [Example 188, (3R)-N-(2-cyano-3-{[3-(4-{4-[(4-{4-[(3S)-2,6-dioxopiperidin-3-yl]-2-fluorophenyl}piperidin-1-yl)methyl]piperidin-1-yl}phenyl)-4-oxo-3,4-dihydroquinazolin-6-yl]oxy}-4-fluorophenyl)-3-fluoropyrrolidine-1-sulfonamide] | 1 to 10 nM | 35 to 70% | 50 to 500 nM | 35 to 70%
N#Cc1c(NS(=O)(=O)N2CC[C@@H](F)C2)ccc(F)c1Oc1ccc2ncn(-c3ccc(N4CC(CN5CCC(c6ccc7c(c6)CN([C@H]6CCC(=O)NC6=O)C7=O)CC5)C4)cc3)c(=O)c2c1 [Example 189, (3R)-N-(2-cyano-3-{[3-(4-{3-[(4-{2-[(3S)-2,6-dioxopiperidin-3-yl]-1-oxo-2,3-dihydro-1H-isoindol-5-yl}piperidin-1-yl)methyl]azetidin-1-yl}phenyl)-4-oxo-3,4-dihydroquinazolin-6-yl]oxy}-4-fluorophenyl)-3-fluoropyrrolidine-1-sulfonamide] | 1 to 10 nM | 35 to 70% | 50 to 500 nM | 35 to 70%
N#Cc1c(NS(=O)(=O)N2CC[C@@H](F)C2)ccc(F)c1Oc1ccc2ncn(-c3ccc(N4CCC(CN5CCC(c6ccc([C@H]7CCC(=O)NC7=O)cc6F)CC5)CC4)cc3)c(=O)c2c1 [Example 187, (3R)-N-(2-cyano-3-{[3-(4-{4-[(4-{4-[(3R)-2,6-dioxopiperidin-3-yl]-2-fluorophenyl}piperidin-1-yl)methyl]piperidin-1-yl}phenyl)-4-oxo-3,4-dihydroquinazolin-6-yl]oxy}-4-fluorophenyl)-3-fluoropyrrolidine-1-sulfonamide] | 1 to 10 nM | ≤ 35% | 50 to 500 nM | ≥ 70%

The remaining lines, values ahead:

DC50 (B-RAF G466V) | Dmax (B-RAF G466V) | DC50 (B-RAF V600E) | Dmax (B-RAF V600E) | SMILES
1 to 10 nM | 35 to 70% | 50 to 500 nM | ≤ 35% | N#Cc1c(NS(=O)(=O)N2CC[C@@H](F)C2)ccc(F)c1Oc1ccc2ncn(-c3ccc(N4CCN(CC5CCN(c6ccc7c(c6F)CN([C@H]6CCC(=O)NC6=O)C7=O)CC5)CC4)cn3)c(=O)c2c1 [Example 114, (3R)-N-(2-cyano-3-{[3-(5-{4-[(1-{2-[(3S)-2,6-dioxopiperidin-3-yl]-4-fluoro-1-oxo-2,3-dihydro-1H-isoindol-5-yl}piperidin-4-yl)methyl]piperazin-1-yl}pyridin-2-yl)-4-oxo-3,4-dihydroquinazolin-6-yl]oxy}-4-fluorophenyl)-3-fluoropyrrolidine-1-sulfonamide]
1 to 10 nM | ≤ 35% | 50 to 500 nM | 35 to 70% | N#Cc1c(NS(=O)(=O)N2CC[C@@H](F)C2)ccc(F)c1Oc1ccc2ncn(-c3cccc(N4CCCC(CN5CCN(c6ccc7c(c6)CN([C@H]6CCC(=O)NC6=O)C7=O)CC5)C4)c3)c(=O)c2c1 (stereo partly drawn) [Example 93, (3R)-N-(2-cyano-3-{[3-(3-{3-[(4-{2-[(3S)-2,6-dioxopiperidin-3-yl]-1-oxo-2,3-dihydro-1H-isoindol-5-yl}piperazin-1-yl)methyl]piperidin-1-yl}phenyl)-4-oxo-3,4-dihydroquinazolin-6-yl]oxy}-4-fluorophenyl)-3-fluoropyrrolidine-1-sulfonamide]
1 to 10 nM | ≥ 70% | 5 to 50 nM | ≥ 70% | N#Cc1c(NS(=O)(=O)N2CC[C@@H](F)C2)ccc(F)c1Oc1ccc2ncn(-c3ccc(N4CCC(CN5CCC6(CCC(c7ccc8c(c7)CN([C@H]7CCC(=O)NC7=O)C8=O)CC6)CC5)CC4)cc3)c(=O)c2c1 [Example 262, (3R)-N-(2-cyano-3-{[3-(4-{4-[(9-{2-[(3S)-2,6-dioxopiperidin-3-yl]-1-oxo-2,3-dihydro-1H-isoindol-5-yl}-3-azaspiro[5.5]undecan-3-yl)methyl]piperidin-1-yl}phenyl)-4-oxo-3,4-dihydroquinazolin-6-yl]oxy}-4-fluorophenyl)-3-fluoropyrrolidine-1-sulfonamide]
1 to 10 nM | 35 to 70% | 50 to 500 nM | 35 to 70% | N#Cc1c(NS(=O)(=O)N2CC[C@@H](F)C2)ccc(F)c1Oc1ccc2ncn(-c3ccc(N4CC5(CCN(CC6CCN(c7ccc8c(c7)CN([C@H]7CCC(=O)NC7=O)C8=O)CC6)CC5)C4)cc3)c(=O)c2c1 [Example 192, (3R)-N-(2-cyano-3-{[3-(4-{7-[(1-{2-[(3S)-2,6-dioxopiperidin-3-yl]-1-oxo-2,3-dihydro-1H-isoindol-5-yl}piperidin-4-yl)methyl]-2,7-diazaspiro[3.5]nonan-2-yl}phenyl)-4-oxo-3,4-dihydroquinazolin-6-yl]oxy}-4-fluorophenyl)-3-fluoropyrrolidine-1-sulfonamide]
1 to 10 nM | ≤ 35% | 50 to 500 nM | 35 to 70% | N#Cc1c(NS(=O)(=O)N2CC[C@@H](F)C2)ccc(F)c1Oc1ccc2ncn(-c3ccc(N4CCC(CN5CCC6(CC5)CN(c5cccc7c5CN(C5CCC(=O)NC5=O)C7=O)C6)CC4)nc3)c(=O)c2c1 (stereo partly drawn) [Example 169, (3R)-N-{2-cyano-3-[(3-{6-[4-({2-[2-(2,6-dioxopiperidin-3-yl)-1-oxo-2,3-dihydro-1H-isoindol-4-yl]-2,7-diazaspiro[3.5]nonan-7-yl}methyl)piperidin-1-yl]pyridin-3-yl}-4-oxo-3,4-dihydroquinazolin-6-yl)oxy]-4-fluorophenyl}-3-fluoropyrrolidine-1-sulfonamide]
1 to 10 nM | ≤ 35% | 50 to 500 nM | 35 to 70% | N#Cc1c(NS(=O)(=O)N2CC[C@@H](F)C2)ccc(F)c1Oc1ccc2ncn(-c3ccc(N4CCN(c5ccc6c(c5)C(=O)N(C5CCC(=O)NC5=O)C6=O)CC4)nc3)c(=O)c2c1 (stereo partly drawn) [Example 161, (3R)-N-(2-cyano-3-{[3-(6-{4-[2-(2,6-dioxopiperidin-3-yl)-1,3-dioxo-2,3-dihydro-1H-isoindol-5-yl]piperazin-1-yl}pyridin-3-yl)-4-oxo-3,4-dihydroquinazolin-6-yl]oxy}-4-fluorophenyl)-3-fluoropyrrolidine-1-sulfonamide]
≤ 1 nM | ≤ 35% | 50 to 500 nM | 35 to 70% | N#Cc1c(NS(=O)(=O)N2CC[C@@H](F)C2)ccc(F)c1Oc1ccc2ncn(-c3ccc(N4CCN(CCCOc5ccc6c(c5)C(=O)N(C5CCC(=O)NC5=O)C6=O)CC4)nc3)c(=O)c2c1 (stereo partly drawn) [Example 164, (3R)-N-{2-cyano-3-[(3-{6-[4-(3-{[2-(2,6-dioxopiperidin-3-yl)-1,3-dioxo-2,3-dihydro-1H-isoindol-5-yl]oxy}propyl)piperazin--1-yl]pyridin-3-yl}-4-oxo-3,4-dihydroquinazolin-6-yl)oxy]-4-fluorophenyl}-3-fluoropyrrolidine-1-sulfonamide]
1 to 10 nM | 35 to 70% | 5 to 50 nM | 35 to 70% | N#Cc1c(NS(=O)(=O)N2CC[C@@H](F)C2)ccc(F)c1Oc1ccc2ncn(-c3ccc(N4CCC(CN5CCN(CC6CCN(c7ccc8c(c7)C(=O)N(C7CCC(=O)NC7=O)C8=O)CC6)CC5)CC4)nc3)c(=O)c2c1 (stereo partly drawn) [Example 147, (3R)-N-[2-cyano-3-({3-[6-(4-{[4-({1-[2-(2,6-dioxopiperidin-3-yl)-1,3-dioxo-2,3-dihydro-1H-isoindol-5-yl]piperidin-4-yl}methyl)piperazin-1-yl]methyl}piperidin-1-yl)pyridin-3-yl]-4-oxo-3,4-dihydroquinazolin-6-yl}oxy)-4-fluorophenyl]-3-fluoropyrrolidine-1-sulfonamide]

Reference: patent US11957759B1, “Rapidly accelerated fibrosarcoma (RAF) degrading compounds and associated methods of use” (Arvinas Operations, Inc., priority 2022, dated 2024)
